Where two headings read alike, the source gives them in different places.
Legend:
prolyl hydroxylase = prolyl hydroxylase (Homo sapiens, UniProt P13674); test: enzyme test, hydroxylation of insufficiently hydroxylated collagen by prolyl hydroxylase (cell-free); assay type: biochemical
Text: (§1) The inhibiting effect of the substances in accordance with the invention on collagen biosynthesis can be examined in an enzyme test analogous to the method of B. Peterkofsky and R. DiBlasio [Anal. Biochem. 66, 279-286 (1975)]. In this test, insufficiently hydroxylated collagen is enzymatically hydroxylated in the presence of molecular oxygen, iron-II ions, alpha-ketoglutaric and ascorbic acid.
(§2) As enzymes, prolyl hydroxylase or lysyl hydroxylase can be used and applied in a cell-free medium. The effect of the substances of the invention can be measured furthermore in cell and tissue cultures.
(§3) The inhibiting effect (DI50) is that concentration at which the enzyme reaction is inhibited by 50%.

lysyl hydroxylase = target: T1, lysyl hydroxylase (Homo sapiens, UniProt Q02809); test: enzyme test, hydroxylation of insufficiently hydroxylated collagen by lysyl hydroxylase (cell-free); assay type: biochemical
T1 sequence (Q02809 19-727): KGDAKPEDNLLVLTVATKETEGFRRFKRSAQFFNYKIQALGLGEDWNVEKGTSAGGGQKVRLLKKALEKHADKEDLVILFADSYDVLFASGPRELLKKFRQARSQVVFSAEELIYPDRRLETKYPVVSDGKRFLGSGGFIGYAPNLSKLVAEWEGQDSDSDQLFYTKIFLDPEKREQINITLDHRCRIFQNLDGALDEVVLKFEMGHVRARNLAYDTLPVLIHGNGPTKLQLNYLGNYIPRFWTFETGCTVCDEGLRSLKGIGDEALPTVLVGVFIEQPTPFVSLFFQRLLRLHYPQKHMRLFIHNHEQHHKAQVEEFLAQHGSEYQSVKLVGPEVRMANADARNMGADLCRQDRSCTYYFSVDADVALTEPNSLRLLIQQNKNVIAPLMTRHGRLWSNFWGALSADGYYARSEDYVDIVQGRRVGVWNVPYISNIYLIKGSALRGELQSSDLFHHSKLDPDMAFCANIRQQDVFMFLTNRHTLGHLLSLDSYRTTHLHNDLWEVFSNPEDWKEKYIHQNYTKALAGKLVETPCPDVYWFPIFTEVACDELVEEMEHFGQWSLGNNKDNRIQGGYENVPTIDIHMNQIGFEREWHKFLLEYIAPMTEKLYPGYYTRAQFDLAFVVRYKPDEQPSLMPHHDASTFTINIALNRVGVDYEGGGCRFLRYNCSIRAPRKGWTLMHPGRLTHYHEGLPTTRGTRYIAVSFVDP
Text: as §1, §2, §3

collagen biosynthesis = test: inhibiting effect in cell culture; assay type: cell-based; conditions: read-out: DI50 cell culture
Text: as §2, §3

[1] = concentration at which the enzyme reaction is inhibited by 50%, first part of Table, read-out: DI50 propyl-hydroxylase
[2] = concentration at which the enzyme reaction is inhibited by 50%, first part of Table, read-out: DI50 lysylhydroxylase
[3] = second part of Table, P, read-out: DI50 P.circle.
[4] = second part of Table, column L (circled), read-out: DI50 L.circle.

prolyl hydroxylase, sequence (P13674 18-534): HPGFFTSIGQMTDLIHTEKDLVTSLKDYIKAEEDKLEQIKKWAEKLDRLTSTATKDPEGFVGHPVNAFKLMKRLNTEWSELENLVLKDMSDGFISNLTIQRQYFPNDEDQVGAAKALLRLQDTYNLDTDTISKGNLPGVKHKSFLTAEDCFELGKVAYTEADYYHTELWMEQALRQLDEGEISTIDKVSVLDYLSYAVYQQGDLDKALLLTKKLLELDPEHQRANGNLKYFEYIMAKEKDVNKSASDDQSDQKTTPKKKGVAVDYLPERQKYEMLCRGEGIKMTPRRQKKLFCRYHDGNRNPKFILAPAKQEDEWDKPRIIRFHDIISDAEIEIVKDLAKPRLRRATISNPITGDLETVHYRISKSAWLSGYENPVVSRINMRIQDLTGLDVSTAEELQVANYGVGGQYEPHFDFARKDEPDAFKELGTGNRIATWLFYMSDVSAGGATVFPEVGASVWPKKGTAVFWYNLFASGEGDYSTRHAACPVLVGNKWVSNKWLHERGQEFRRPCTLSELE
prolyl hydroxylase, sequence (P07237 18-508 partner): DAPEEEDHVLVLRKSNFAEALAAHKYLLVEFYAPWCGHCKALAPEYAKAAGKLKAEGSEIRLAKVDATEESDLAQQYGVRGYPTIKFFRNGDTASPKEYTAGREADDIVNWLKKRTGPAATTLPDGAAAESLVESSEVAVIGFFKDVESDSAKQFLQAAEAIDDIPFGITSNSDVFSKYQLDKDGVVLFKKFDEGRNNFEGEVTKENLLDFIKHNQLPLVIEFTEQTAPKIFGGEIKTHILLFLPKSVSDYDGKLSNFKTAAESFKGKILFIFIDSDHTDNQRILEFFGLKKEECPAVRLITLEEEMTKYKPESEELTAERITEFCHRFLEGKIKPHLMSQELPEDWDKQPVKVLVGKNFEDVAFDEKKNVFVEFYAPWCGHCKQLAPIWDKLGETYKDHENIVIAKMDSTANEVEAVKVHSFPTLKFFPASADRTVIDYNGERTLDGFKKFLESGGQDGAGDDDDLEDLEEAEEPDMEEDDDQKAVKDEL

IC50 (prolyl hydroxylase; [1]) [µM]	IC50 (lysyl hydroxylase; [2]) [µM]	IC50 (collagen biosynthesis) [µM]	IC50 (prolyl hydroxylase; [3]) [µM]	IC50 (lysyl hydroxylase; [4]) [µM]	Structure (SMILES)
28	28	34	–	–	Cc1ccc(O)c(C2=NC(C(=O)O)CS2)c1 (centres unmarked)
20	28	–	–	–	O=C(O)C1CSC(c2ccccc2O)=N1 (centres unmarked)
16	12	17	–	–	O=C(O)C1CSC(c2cc(Cl)ccc2O)=N1 (centres unmarked)
26	16	–	–	–	O=C(O)C1CSC(c2ccc(O)cc2O)=N1 (centres unmarked)
28	28	–	–	–	O=C(O)[C@@H]1CSC(c2ccccc2O)N1 (some centres unmarked)
50 to 100	50 to 100	–	–	–	O=C(O)[C@@H]1CSC(c2cc([N+](=O)[O-])ccc2O)N1 (some centres unmarked)
50 to 100	10	–	–	–	O=C(O)[C@@H]1CSC(c2cc(Br)cc(Br)c2O)N1 (some centres unmarked)
50 to 100	50 to 100	–	–	–	O=C(O)[C@@H]1CSC(c2cc(Cl)cc(Cl)c2O)N1 (some centres unmarked)
42	67	–	–	–	Cc1ccc(O)c(-c2nc(C(=O)O)cs2)c1
–	–	–	26	34	Cc1ccc(O)c(-c2nc(C(=O)O)c(-c3ccccc3)s2)c1
–	–	–	27	21	O=C(O)c1nc(-c2ccc(O)cc2O)sc1-c1ccccc1
–	–	–	67	144	Cc1ccc(O)c(-c2nc(C(=O)O)c(C(=O)O)s2)c1
–	–	–	71	188	O=C(O)c1csc(-c2cc(Cl)ccc2O)n1
–	–	–	5.6	29	Nc1ccc(O)c(-c2nc(C(=O)O)cs2)c1
–	–	–	28.2	31.6	O=C(O)c1csc(-c2cc(Cl)c3ccccc3c2O)n1

From patent publication US4457936A, “Use of hydroxyphenyl-thiazole-, -thiazoline- and -thiazolidine-carboxylic acids, for influencing the collagen metabolism” (Hoechst Aktiengesellschaft, priority 1980, dated 1984)
